Experimental data taken from patent US20220169654A1, “New Organic Compounds” (Servier Pharmaceuticals LLC, priority 2020, published 2022).

Assays:
[1] = tested on: HCT116 MTAP−/−; assay: Inhibition of cellular proliferation, 4 days, Cell Titer Glo, HCT116 MTAP−/−; type: cell-based; conditions: Homo sapiens, HCT-116, 96 h, IC50 bin with Max Inh., read-out: 4 Day Relative Growth Inhibition (MTAP −/−)
Method in brief: (§1)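 IC50 derived from blank-corrected ATP luminescence (Cell Titer Glo) expressed relative to within-plate 0.2% DMSO wells. Compound, as a 10-point 3-fold series, was added 24 h after seeding the MTAP+/+ or MTAP−/− HCT116 cells and incubated 4 days at 37° C./5% CO2.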

[2] = tested on: SAM in HCT116 human colon carcinoma cell line with MTAP gene deleted (MTAP −/−); assay: Cellular assay of target engagement (SAM), LC-MS/MS, 72 hrs; type: cell-based; conditions: HCT-116, IC50 bin with Max Inh., read-out: Cell 72 h SAM Inhibition (MTAP −/−)
Method in brief: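 SAM levels were quantified by LC-MS/MS (m/z 399.2→250.1, d3-SAM internal standard) from cold methanol/acetic acid extracts, yielding IC50. Compound was applied as a 10-point 3-fold series for 72 hrs to MTAP −/− HCT116 cells seeded 24 hours before.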

[3] = tested on: HCT116 MTAP+/+; assay: Inhibition of cellular proliferation, 4 days, Cell Titer Glo, HCT116 MTAP+/+; type: cell-based; conditions: Homo sapiens, HCT-116, 96 h, IC50 bin with Max Inh., read-out: 4 Day Relative Growth Inhibition (MTAP +/+)
Method in brief: as §1

[4] = target: T1, MAT2A homodimer (Homo sapiens, UniProt P31153); assay: MAT2A inhibition (biochemical, liberated phosphate, PiColorLock Gold); conditions: recombinant MAT2A homodimer; IC50 bin with Max Inh.; read-out: Enzyme Inhibition Bin
T1 construct: inferred from Ni sepharose purification with imidazole elution; made in house; host or cells: Sf9 insect cells, baculovirus (Bac to Bac, pFASTBAC1)
T1 sequence (P31153 whole entry): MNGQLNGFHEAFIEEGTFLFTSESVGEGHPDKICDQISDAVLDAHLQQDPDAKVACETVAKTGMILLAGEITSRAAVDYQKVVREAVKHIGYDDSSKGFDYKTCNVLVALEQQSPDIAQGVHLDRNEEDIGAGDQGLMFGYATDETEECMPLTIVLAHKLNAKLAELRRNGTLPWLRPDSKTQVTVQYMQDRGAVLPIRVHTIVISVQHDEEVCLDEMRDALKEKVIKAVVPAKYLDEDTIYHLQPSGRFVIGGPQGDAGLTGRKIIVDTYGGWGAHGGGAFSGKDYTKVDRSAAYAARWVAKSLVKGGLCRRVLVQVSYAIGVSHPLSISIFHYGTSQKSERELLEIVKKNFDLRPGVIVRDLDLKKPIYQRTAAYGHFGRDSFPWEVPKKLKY
Method in brief: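 Enzyme at 4 μg/mL and compound equilibrated 60 min at 25 °C, then 60 min reaction after adding substrate mix (500 μM ATP, 400 μM methionine). Released phosphate quantified by colorimetric kit against a phosphate standard curve to give IC50. Secondary format used 1 μg/mL enzyme with 5 h incubation.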

IC50 [1]	IC50 [2]	IC50 [3]	IC50 [4]	Compound
< 100 nM	< 100 nM	100 to 1000 nM	< 100 nM	Cc1ccc(-c2c(=O)n(-c3ccc4nn(C)cc4c3)nc3c(F)cn(CC4CC4)c23)cn1 [Example 237, 5-(cyclopropylmethyl)-7-fluoro-2-(2-methyl-2H-indazol-5-yl)-4-(6-methylpyridin-3-yl)-2,5-dihydro-3H-pyrrolo[3,2-c]pyridazin-3-one]
< 100 nM	< 100 nM	> 1000 nM	< 100 nM	Cn1cc2cc(-n3nc4c(Br)cn(CC5CC5)c4c(-c4ccc(C5CC5)nc4)c3=O)ccc2n1 [Example 238, 7-bromo-5-(cyclopropylmethyl)-4-(6-cyclopropylpyridin-3-yl)-2-(2-methyl-2H-indazol-5-yl)-2,5-dihydro-3H-pyrrolo[3,2-c]pyridazin-3-one]
< 100 nM	< 100 nM	< 100 nM	< 100 nM	Cn1cc2cc(-n3nc4c(CO)cn(CC5CC5)c4c(-c4ccc(C5CC5)nc4)c3=O)ccc2n1 [Example 239, 5-(cyclopropylmethyl)-4-(6-cyclopropylpyridin-3-yl)-7-(hydroxymethyl)-2-(2-methyl-2H-indazol-5-yl)-2,5-dihydro-3H-pyrrolo[3,2-c]pyridazin-3-one]
< 100 nM	< 100 nM	100 to 1000 nM	< 100 nM	Cn1cc2cc(-n3nc4c(C(F)F)cn(CC5CC5)c4c(-c4ccc(C5CC5)nc4)c3=O)ccc2n1 [Example 240, 5-(cyclopropylmethyl)-4-(6-cyclopropylpyridin-3-yl)-7-(difluoromethyl)-2-(2-methyl-2H-indazol-5-yl)-2,5-dihydro-3H-pyrrolo[3,2-c]pyridazin-3-one]
< 100 nM	< 100 nM	> 1000 nM	< 100 nM	Cn1nc2ccc(-n3nc4ccn(CC5CC5)c4c(-c4ccc(C5CC5)nc4)c3=O)cc2c1C(F)(F)F [Example 241, 5-(cyclopropylmethyl)-4-(6-cyclopropylpyridin-3-yl)-2-(2-methyl-3-(trifluoromethyl)-2H-indazol-5-yl)-2,5-dihydro-3H-pyrrolo[3,2-c]pyridazin-3-one]
100 to 1000 nM	100 to 1000 nM	100 to 1000 nM	< 100 nM	Cn1nc2ccc(-n3nc4c(C(F)(F)F)cn(CC5CC5)c4c(-c4ccc(C5CC5)nc4)c3=O)cc2c1C(F)(F)F [Example 242, 5-(cyclopropylmethyl)-4-(6-cyclopropylpyridin-3-yl)-2-(2-methyl-3-(trifluoromethyl)-2H-indazol-5-yl)-7-(trifluoromethyl)-2,5-dihydro-3H-pyrrolo[3,2-c]pyridazin-3-one]

The remaining lines, values behind:

Compound	IC50 [1]	IC50 [2]	IC50 [3]	IC50 [4]
O=c1c(-c2ccc(OC(F)F)cc2)c2c(ccn2CC2CC2)nn1-c1ccncc1 [Example 226, 5-(cyclopropylmethyl)-4-(4-(difluoromethoxy)phenyl)-2-(pyridin-4-yl)-2,5-dihydro-3H-pyrrolo[3,2-c]pyridazin-3-one]	< 100 nM	< 100 nM	100 to 1000 nM	< 100 nM
CN1CCOc2ccc(-n3nc4ccn(CC5CC5)c4c(-c4ccc(OC(F)F)cc4)c3=O)cc21 [Example 227, 5-(cyclopropylmethyl)-4-(4-(difluoromethoxy)phenyl)-2-(4-methyl-3,4-dihydro-2H-benzo[b][1,4]oxazin-6-yl)-2,5-dihydro-3H-pyrrolo[3,2-c]pyridazin-3-one]	< 100 nM	< 100 nM	100 to 1000 nM	< 100 nM
Nc1ccc(-n2nc3ccn(CC4CC4)c3c(-c3ccc(OC(F)F)cc3)c2=O)cc1 [Example 228, 2-(4-aminophenyl)-5-(cyclopropylmethyl)-4-(4-(difluoromethoxy)phenyl)-2,5-dihydro-3H-pyrrolo[3,2-c]pyridazin-3-one]	> 1000 nM	100 to 1000 nM	> 1000 nM	< 100 nM
COc1ccc(-n2nc3ccn(CC4CC4)c3c(-c3ccc(OC(F)F)cc3)c2=O)cc1 [Example 229, 5-(cyclopropylmethyl)-4-(4-(difluoromethoxy)phenyl)-2-(4-methoxyphenyl)-2,5-dihydro-3H-pyrrolo[3,2-c]pyridazin-3-one]	< 100 nM	< 100 nM	100 to 1000 nM	< 100 nM
COC1CC=C(n2nc3ccn(CC4CC4)c3c(-c3ccc(OC(F)F)cc3)c2=O)CC1 (centres unmarked) [Example 230, 5-(cyclopropylmethyl)-4-(4-(difluoromethoxy)phenyl)-2-(4-methoxycyclohex-1-en-1-yl)-2,5-dihydro-3H-pyrrolo[3,2-c]pyridazin-3-one]	100 to 1000 nM	100 to 1000 nM	> 1000 nM	< 100 nM
O=c1c(-c2ccc(OC(F)F)cc2)c2c(ccn2CC2CC2)nn1-c1cn[nH]c1 [Example 231, 5-(cyclopropylmethyl)-4-(4-(difluoromethoxy)phenyl)-2-(1H-pyrazol-4-yl)-2,5-dihydro-3H-pyrrolo[3,2-c]pyridazin-3-one]	100 to 1000 nM	100 to 1000 nM	> 1000 nM	< 100 nM
Cn1cc2cc(-n3nc4c(Cl)cn(CC5CC5)c4c(-c4ccc(C5CC5)nc4)c3=O)ccc2n1 [Example 233, 7-chloro-5-(cyclopropylmethyl)-4-(6-cyclopropylpyridin-3-yl)-2-(2-methyl-2H-indazol-5-yl)-2,5-dihydro-3H-pyrrolo[3,2-c]pyridazin-3-one]	< 100 nM	< 100 nM	100 to 1000 nM	< 100 nM
Cc1cn(CC2CC2)c2c(-c3ccc(C4CC4)nc3)c(=O)n(-c3ccc4nn(C)cc4c3)nc12 [Example 234, 5-(cyclopropylmethyl)-4-(6-cyclopropylpyridin-3-yl)-7-methyl-2-(2-methyl-2H-indazol-5-yl)-2,5-dihydro-3H-pyrrolo[3,2-c]pyridazin-3-one]	< 100 nM	< 100 nM	< 100 nM	< 100 nM
Cn1cc2cc(-n3nc4c(F)cn(CC5CC5)c4c(-c4ccc(C5CC5)nc4)c3=O)ccc2n1 [Example 235, 5-(cyclopropylmethyl)-4-(6-cyclopropylpyridin-3-yl)-7-fluoro-2-(2-methyl-2H-indazol-5-yl)-2,5-dihydro-3H-pyrrolo[3,2-c]pyridazin-3-one]	< 100 nM	< 100 nM	> 1000 nM	< 100 nM
CC(=O)c1cn(CC2CC2)c2c(-c3ccc(C4CC4)nc3)c(=O)n(-c3ccc4nn(C)cc4c3)nc12 [Example 236, 7-acetyl-5-(cyclopropylmethyl)-4-(6-cyclopropylpyridin-3-yl)-2-(2-methyl-2H-indazol-5-yl)-2,5-dihydro-3H-pyrrolo[3,2-c]pyridazin-3-one]	< 100 nM	< 100 nM	> 1000 nM	< 100 nM
Cn1cc2cc(-n3nc4c(C#C[Si](C)(C)C)cn(CC5CC5)c4c(-c4ccc(C5CC5)nc4)c3=O)ccc2n1 [Example 243, 5-(cyclopropylmethyl)-4-(6-cyclopropylpyridin-3-yl)-2-(2-methyl-2H-indazol-5-yl)-7-((trimethylsilyl)ethynyl)-2,5-dihydro-3H-pyrrolo[3,2-c]pyridazin-3-one]	< 100 nM	< 100 nM	> 1000 nM	< 100 nM
